In series [1] the test system is Escherichia coli. Nature of the series: Antimicrobial activity against Escherichia coli by two fold serial dilution method. Type of series: functional.
The subject of series [2] is HepG2. The experiment in a line: Cytotoxicity in human HepG2 cells assessed as reduction in cell viability by MTT assay. The class given is functional, cell-based.
In series [3] the test system is Aspergillus fumigatus. Nature of the series: Antimicrobial activity against Aspergillus fumigatus 293 by two fold serial dilution method. The class given is functional. The settings on record: Af293.
For series [4], the system named is MCF7. The experiment in a line: Cytotoxicity in human MCF7 cells assessed as reduction in cell viability by MTT assay. The class given is functional, cell-based.
Series [5] deals with Chromobacterium violaceum. The experiment in a line: Antiquorum-sensing activity against Chromobacterium violaceum ATCC 12472 assessed as reduction in violacein production at 5000 ug/ml a=. Type of series: functional.
Series [6] deals with Bacillus cereus. The experiment in a line: Antimicrobial activity against Bacillus cereus by two fold serial dilution method. The class given is functional.
Series [7] concerns Staphylococcus aureus. Nature of the series: Antimicrobial activity against Staphylococcus aureus by two fold serial dilution method. The class given is functional.
The test system of series [8] is HCT-116. Nature of the series: Cytotoxicity in human HCT116 cells assessed as reduction in cell viability by MTT assay. The class given is functional, cell-based.
Series [9] has as its system Calf thymus DNA. The experiment in a line: Binding affinity to calf thymus DNA by TLC plate based assay. Particulars: Bos taurus. The class given is nucleic-acid assay.
The subject of series [10] is Mus musculus. The experiment in a line: Toxicity in mouse EAC cells implanted Swiss mouse assessed as RBC count at 0.5 mg/mouse dosed for 9 days starting 1 day after tumor cell implantation (reference value: 3.69 10^6/mm3)). The class given is organism-based. Particulars: in vivo.
For series [11], the system named is Ehrlich. The experiment in a line: Antitumor activity against mouse EAC cells implanted in Swiss mouse assessed as increase in life span at 0.5 mg/mouse dosed for 9 days starting 1 day after tumor cell implantation relative to untreated control. The class given is functional.
Series [12] concerns WI-38. Nature of the series: Cytotoxicity in human WI38 cells assessed as reduction in cell viability by MTT assay. The class given is cell-based.
Series [13] relates to Mus musculus. The experiment in a line: Toxicity in mouse EAC cells implanted Swiss mouse assessed as WBC count at 0.5 mg/mouse dosed for 9 days starting 1 day after tumor cell implantation (reference value: 23.96 10^3/mm3)). The class given is organism-based. Particulars: in vivo.
Series [14] relates to Ehrlich. Nature of the series: Antitumor activity against mouse EAC cells implanted in Swiss mouse assessed as mouse survival time at 0.5 mg/mouse dosed for 9 days starting 1 day after tumor cell implantation (reference value: 14.5 days). The class given is functional.
In series [15] the test system is Mus musculus. Nature of the series: Toxicity in mouse EAC cells implanted Swiss mouse assessed as hemoglobin level at 0.5 mg/mouse dosed for 9 days starting 1 day after tumor cell implantation (reference value: 8.15 g/dl). The settings on record: in vivo. The class given is organism-based.
Series [16] concerns Ehrlich. Nature of the series: Antitumor activity against mouse EAC cells implanted in Swiss mouse assessed as viable cell count per 100 ul at 0.5 mg/mouse dosed for 9 days starting 1 day after tumor cell implantation (reference value: 83.2 x 10^6/100 ul). Type of series: functional.
Series [17] has as its system Ehrlich. The experiment in a line: Antitumor activity against mouse EAC cells implanted in Swiss mouse assessed as tumor volume at 0.5 mg/mouse dosed for 9 days starting 1 day after tumor cell implantation (reference value: 9.85 ml). Type of series: functional.

Values after ≈ are worked out from the molar mass of the structure shown. Active and inactive are the calls of the source. The calls are words filed in the database; no cut-off is given here.

As to `CC1=NN(Cc2nc3cc([N+](=O)[O-])ccc3[nH]2)C(=O)C1`, the MIC in [1] was greater than 2500 µg/mL; in series [3], 625 µg/mL (≈ 2.29 mM); in [6] it was 1250 µg/mL (≈ 4.57 mM); in series [7], 2500 µg/mL (≈ 9.15 mM). The half-maximal inhibitory concentration (IC50) in series [2] came to 265 µM; in series [4], 281 µM; in [8], 200 µM. The “diameter of the inhibition zone (DIZ)” value in series [5] came to 3 mm.

Regarding `O=[N+]([O-])c1ccc2[nH]c(CNc3nc(-c4ccccc4)cs3)nc2c1`, the MIC in series [1] was greater than 2500 µg/mL; in series [3] it was 1250 µg/mL (≈ 3.56 mM); in [6], greater than 2500 µg/mL; in series [7], greater than 2500 µg/mL. The IC50 in [2] stood at 226 µM; in [4] it was 254 µM; in [8] it was 198 µM. Further, in [5], the “diameter of the inhibition zone (DIZ)” value is 6 mm.

Turning to `CC[n+]1c(-c2ccccc2)c2cc(N)ccc2c2ccc(N)cc21`, the result in [9] was Active.

Consider `Fc1ccc2nc(NCc3nc4ccccc4[nH]3)sc2c1`, for which the minimal inhibitory concentration (MIC) was greater than 2500 µg/mL in [1], 1250 µg/mL (≈ 4.19 mM) in series [3], greater than 2500 µg/mL in series [6] and 156 µg/mL (≈ 0.524 mM) in [7]. The IC50 was determined as 233 µM in series [2], 242 µM in series [4] and 238 µM in series [8]. Also, in [9], the outcome was Active. For the same molecule, the “diameter of the inhibition zone (DIZ)” value in series [5] was found to be 11 mm.

In the case of `CC1=NN(Cc2nc3ccccc3[nH]2)C(=O)C1`, the Activity was 4.55 ×10⁶ /mm3 in series [10]; 11.26 ×10³ /mm3 in series [13]; 11.47 g/dL in series [15]; 45.38 ×10⁶ No_unit in series [16]; 4.16 mL in series [17]. Besides, the MIC was greater than 2500 µg/mL in series [1], 312 µg/mL (≈ 1.37 mM) in series [3], 1250 µg/mL (≈ 5.48 mM) in series [6] and 156 µg/mL (≈ 0.685 mM) in [7]. Besides, in series [11], the increase in life span (ILS) is 110.34%. The IC50 in [12] turned out to be 246 µM; in series [2], 54 µM; in series [4], 62 µM; in series [8], 42 µM. The outcome in series [9] was Active. The MST in series [14] is 31.5 days. Besides, the “diameter of the inhibition zone (DIZ)” value in [5] is 4 mm.

Turning to `NS(=O)(=O)c1nnc(NCc2nc3ccccc3[nH]2)s1`, the MIC in series [1] is 625 µg/mL (≈ 2.01 mM); in [3] it was greater than 2500 µg/mL; in [6] it was greater than 2500 µg/mL; in series [7], 625 µg/mL (≈ 2.01 mM). Also, the figures for the IC50 in series [2], in series [4] and in [8] were 162 µM, 228 µM and 156 µM, respectively. Moreover, in [9], the outcome was Active. For the same molecule, in series [5], the “diameter of the inhibition zone (DIZ)” value is less than 2 mm.

As to `O=[N+]([O-])c1ccc2[nH]c(CNc3c([N+](=O)[O-])ccc4ncccc34)nc2c1`, the minimum inhibitory concentration (MIC) in series [1] worked out at 1250 µg/mL (≈ 3.43 mM); in [3], 2500 µg/mL (≈ 6.86 mM); in [6], 312 µg/mL (≈ 0.858 mM); in series [7] it was 2500 µg/mL (≈ 6.86 mM). The values for the IC50 in series [2], in series [4] and in series [8] were 265 µM, 274 µM and 256 µM, respectively. Moreover, in series [9], the result was Active. Moreover, in [5], the “diameter of the inhibition zone (DIZ)” value came to 4 mm.

`O=[N+]([O-])c1ccc2[nH]c(CNc3nc4ccc(F)cc4s3)nc2c1`: the MIC is greater than 2500 µg/mL in series [1], 1250 µg/mL (≈ 3.64 mM) in series [3], greater than 2500 µg/mL in series [6] and greater than 2500 µg/mL in series [7]. Also, the concentration for half-maximal inhibition (IC50) worked out at 263 µM in [2], 291 µM in series [4] and 253 µM in [8]. For the same molecule, in series [5], the “diameter of the inhibition zone (DIZ)” value is 6 mm.

As for `O=c1[nH]cc(F)c(=O)[nH]1` [FLUOROURACIL], the Activity came to 5.21 ×10⁶ /mm3 in [10]; 8.86 ×10³ /mm3 in series [13]; 12.96 g/dL in series [15]; 20.17 ×10⁶ No_unit in [16]; 1.6 mL in series [17]. Besides, the increase in lifespan (ILS) in [11] is given as 237.93%. Besides, the half-inhibitory concentration (IC50) in series [12] came to 51 µM; in [2] it was 61 µM; in series [4], 41.5 µM; in [8] it was 41 µM. Besides, in series [14], the MST was 49 days.

For `COc1ccc2c(c1)CCC/C2=N\NCc1nc2ccccc2[nH]1`, the minimal inhibitory concentration (MIC) in series [1] is greater than 2500 µg/mL; in series [3], greater than 2500 µg/mL; in [6], greater than 2500 µg/mL; in series [7] it was 1250 µg/mL (≈ 3.9 mM). Also, the half-maximal inhibitory concentration (IC50) in series [2] was found to be 80 µM; in [4], 63 µM; in series [8], 41 µM. Also, in series [5], the “diameter of the inhibition zone (DIZ)” value is listed as less than 2 mm.

On to `CC1(C)S[C@@H]2[C@H](NC(=O)[C@H](N)c3ccccc3)C(=O)N2[C@H]1C(=O)O` [AMPICILLIN], for which the minimum inhibitory concentration (MIC) in series [1] was 19.5 µg/mL (≈ 0.0559 mM); in [6], 1250 µg/mL (≈ 3.58 mM); in [7], 312 µg/mL (≈ 0.894 mM).

As for `OC(Cn1cncn1)(Cn1cncn1)c1ccc(F)cc1F` [FLUCONAZOLE], in series [3], the MIC was greater than 2500 µg/mL.

On to `NS(=O)(=O)c1nnc(NCc2nc3cc([N+](=O)[O-])ccc3[nH]2)s1`, for which the minimum inhibitory concentration (MIC) in series [1], in [3], in series [6] and in [7] was greater than 2500 µg/mL each time. Moreover, the values for the IC50 in [2], in [4] and in series [8] were 184 µM, 230 µM and 176 µM, respectively. Also, in series [5], the “diameter of the inhibition zone (DIZ)” value was less than 2 mm.

For `Oc1cc(O)c2c(c1)O[C@H](c1ccc(O)c(O)c1)[C@@H](O)C2` [CIANIDANOL], the “diameter of the inhibition zone (DIZ)” value in series [5] came to 2 mm.

With `Cc1c(NCc2nc3ccccc3[nH]2)c(=O)n(-c2ccccc2)n1C`, the MIC in [1] is 2500 µg/mL (≈ 7.5 mM); in series [3], 625 µg/mL (≈ 1.87 mM); in series [6], 1250 µg/mL (≈ 3.75 mM); in series [7] it was 312 µg/mL (≈ 0.937 mM). The IC50 in series [2] is 63 µM; in series [4], 53 µM; in series [8] it was 38 µM. Also, the outcome in series [9] was Active. In series [5], the “diameter of the inhibition zone (DIZ)” value was determined as 6 mm.

Consider `COc1ccc2c(c1)CCC/C2=N\NCc1nc2cc([N+](=O)[O-])ccc2[nH]1`, for which the MIC was greater than 2500 µg/mL in series [1], 2500 µg/mL (≈ 6.84 mM) in series [3], greater than 2500 µg/mL in series [6] and greater than 2500 µg/mL in [7]. For the same molecule, the IC50 in series [2] is 96 µM; in series [4], 78 µM; in series [8], 45 µM. The “diameter of the inhibition zone (DIZ)” value in [5] is reported as less than 2 mm.

Turning to `O=[N+]([O-])c1ccc2ncccc2c1NCc1nc2ccccc2[nH]1`, the MIC came to 625 µg/mL (≈ 1.96 mM) in [1], 1250 µg/mL (≈ 3.91 mM) in series [3], 156 µg/mL (≈ 0.489 mM) in series [6] and 1250 µg/mL (≈ 3.91 mM) in series [7]. In addition, the IC50 in series [2] amounted to 259 µM; in [4], 237 µM; in series [8], 204 µM. Besides, the result in series [9] was Active. In series [5], the “diameter of the inhibition zone (DIZ)” value stood at 8 mm.

In the case of `Cc1c(NCc2nc3cc([N+](=O)[O-])ccc3[nH]2)c(=O)n(-c2ccccc2)n1C`, the minimum inhibitory concentration (MIC) in series [1] was 2500 µg/mL (≈ 6.61 mM); in [3], 2500 µg/mL (≈ 6.61 mM); in series [6], 1250 µg/mL (≈ 3.3 mM); in [7], 625 µg/mL (≈ 1.65 mM). Besides, the results for the half-inhibitory concentration (IC50) in series [2], in [4] and in series [8] were 93 µM, 78 µM and 44 µM, respectively. In series [5], the “diameter of the inhibition zone (DIZ)” value was less than 2 mm.
